From article PMC3358478 (Chemical Research in Toxicology, 2012)
Entries after “also recorded” stand apart in the source; their conditions may differ.

Assays:
Human P450 1A2 = molecular target: T1, Human P450 1A2 (Homo sapiens, UniProt P05177); assay: Methoxyresorufin O-demethylation; format: biochemical; details: for inhibition behavior toward P450 1A2: concentration- and NADPH-dependence; for difference in the IC50 values, more effective on P450 1A2 than P450 1A1: IC50 1A1 vs 1A2
T1 sequence (P05177 1-516): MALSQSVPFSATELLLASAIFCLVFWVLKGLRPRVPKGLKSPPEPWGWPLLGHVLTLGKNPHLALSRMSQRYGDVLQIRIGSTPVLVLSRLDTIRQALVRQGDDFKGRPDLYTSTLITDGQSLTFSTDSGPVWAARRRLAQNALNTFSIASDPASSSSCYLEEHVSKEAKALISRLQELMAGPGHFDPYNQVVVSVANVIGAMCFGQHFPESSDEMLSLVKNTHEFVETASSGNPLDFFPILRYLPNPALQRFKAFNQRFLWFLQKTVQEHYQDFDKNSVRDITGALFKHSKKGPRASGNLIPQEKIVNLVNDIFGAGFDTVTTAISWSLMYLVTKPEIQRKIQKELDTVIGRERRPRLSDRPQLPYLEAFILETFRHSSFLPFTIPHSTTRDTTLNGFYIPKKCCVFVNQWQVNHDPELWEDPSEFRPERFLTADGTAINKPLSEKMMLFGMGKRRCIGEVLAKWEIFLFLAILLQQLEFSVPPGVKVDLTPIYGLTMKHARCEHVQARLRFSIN

rat P450 2B1 = molecular target: T2, rat P450 2B1 (Rattus norvegicus, UniProt P00176); assay: Pentoxyresorufin O-depentylation; format: biochemical; details: for inhibition behavior toward P450 2B1: time-dependence
T2 sequence (P00176 1-491): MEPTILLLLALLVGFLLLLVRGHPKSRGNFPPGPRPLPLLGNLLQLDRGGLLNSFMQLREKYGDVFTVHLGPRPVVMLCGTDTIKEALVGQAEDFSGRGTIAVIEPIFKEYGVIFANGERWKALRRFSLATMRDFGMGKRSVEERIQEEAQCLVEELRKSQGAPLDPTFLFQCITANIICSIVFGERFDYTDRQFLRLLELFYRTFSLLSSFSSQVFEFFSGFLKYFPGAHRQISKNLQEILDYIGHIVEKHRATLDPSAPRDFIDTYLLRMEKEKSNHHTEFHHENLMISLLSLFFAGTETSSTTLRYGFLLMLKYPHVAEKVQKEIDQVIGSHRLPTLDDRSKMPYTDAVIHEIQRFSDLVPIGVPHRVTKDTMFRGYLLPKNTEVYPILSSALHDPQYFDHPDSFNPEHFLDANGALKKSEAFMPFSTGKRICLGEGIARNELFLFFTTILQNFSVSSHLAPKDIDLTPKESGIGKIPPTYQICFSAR

Human P450 1A1 = molecular target: T3, Human P450 1A1 (Homo sapiens, UniProt P04798); assay: Ethoxyresorufin O-deethylation; format: biochemical; details: for kinact: read-out: limiting Kinact on P450 1A1
T3 sequence (P04798 1-512): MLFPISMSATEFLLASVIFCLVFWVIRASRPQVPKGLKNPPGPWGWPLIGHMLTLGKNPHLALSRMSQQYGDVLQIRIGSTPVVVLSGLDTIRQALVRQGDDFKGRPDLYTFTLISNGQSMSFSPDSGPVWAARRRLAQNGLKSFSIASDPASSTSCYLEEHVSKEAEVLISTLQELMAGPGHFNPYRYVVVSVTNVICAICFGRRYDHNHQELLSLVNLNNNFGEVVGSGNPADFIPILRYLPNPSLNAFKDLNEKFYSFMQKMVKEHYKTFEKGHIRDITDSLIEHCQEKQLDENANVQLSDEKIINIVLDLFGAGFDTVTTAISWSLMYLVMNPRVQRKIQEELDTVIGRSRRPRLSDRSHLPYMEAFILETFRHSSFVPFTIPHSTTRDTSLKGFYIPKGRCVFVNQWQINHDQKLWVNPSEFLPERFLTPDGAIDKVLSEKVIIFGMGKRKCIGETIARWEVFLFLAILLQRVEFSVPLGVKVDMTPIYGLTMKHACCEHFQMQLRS

Human P450 2A6 = molecular target: T4, Human P450 2A6 (Homo sapiens, UniProt P11509); assay: Coumarin 7-hydroxylation assay, P450 2A6 inhibition
T4 sequence (P11509 1-494): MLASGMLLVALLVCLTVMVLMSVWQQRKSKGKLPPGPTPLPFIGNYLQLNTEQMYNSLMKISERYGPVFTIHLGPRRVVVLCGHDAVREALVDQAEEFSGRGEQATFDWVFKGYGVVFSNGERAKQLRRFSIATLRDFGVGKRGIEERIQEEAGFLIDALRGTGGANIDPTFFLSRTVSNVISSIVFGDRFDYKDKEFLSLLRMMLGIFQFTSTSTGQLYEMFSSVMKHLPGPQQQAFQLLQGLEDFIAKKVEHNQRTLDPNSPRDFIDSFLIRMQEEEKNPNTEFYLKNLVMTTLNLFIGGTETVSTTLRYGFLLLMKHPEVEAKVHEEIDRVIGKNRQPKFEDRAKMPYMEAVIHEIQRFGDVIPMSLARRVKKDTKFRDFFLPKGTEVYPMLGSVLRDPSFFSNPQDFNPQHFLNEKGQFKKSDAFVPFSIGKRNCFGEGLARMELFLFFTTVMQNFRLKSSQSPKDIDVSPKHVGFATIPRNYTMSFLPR

With `C#Cc1ccc2cc(-c3ccccc3)c(=O)oc2c1` [7E3PC, 7-Ethynyl-3-phenylcoumarin] the Ki (Human P450 1A2) was 0.65 µM, the “inhibition behavior toward P450 1A2” value (Human P450 1A2) was “mainly results from competitive inhibition and not from mechanism-based inhibition” and the IC50 (rat P450 2B1) was greater than 50 µM. The Ki (Human P450 1A1) was 0.38 µM, the “potency toward P450 1A1 relative to P450 1A2” value (Human P450 1A1; IC50 1A2 vs 1A1) was “about five times more potent” and the kinact (Human P450 1A1) was 0.00417 s⁻¹. The IC50 (Human P450 2A6) was greater than 50 µM.
With `C#Cc1ccc2c(C(F)(F)F)cc(=O)oc2c1` [7E4TFC, 7-Ethynyl-4-(trifluoromethyl)coumarin] the Ki (Human P450 1A2) was 3.15 µM, the “difference in the IC50 values, more effective on P450 1A2 than P450 1A1” value (Human P450 1A2) was “around 5 fold” and the IC50 (rat P450 2B1) was 15.1 µM. The “inhibition behavior toward P450 2B1” value (rat P450 2B1) was “competitive inhibitor”, the Ki (Human P450 1A1) was 16.8 µM and the kinact (Human P450 1A1) was 0.00383 s⁻¹. For the same compound, the IC50 (Human P450 2A6) was greater than 50 µM.
In the case of `C#Cc1ccc2c(C)c(C)c(=O)oc2c1C` [7ETMC, 7-Ethynyl-3,4,8-trimethylcoumarin], the Ki (Human P450 1A2) is reported as 0.87 µM, the IC50 (rat P450 2B1) is reported as greater than 50 µM and the “inhibition activity for P450 2B1” value (rat P450 2B1; at the dose of 50 μM) is reported as “did not show any inhibition activity”. For the same compound, the Ki (Human P450 1A1) was 0.57 µM, the kinact (Human P450 1A1) was 0.00567 s⁻¹ and the “inhibition behavior toward P450 1A1” value (Human P450 1A1; time-, concentration- and NADPH-dependence) was “time-dependent inhibition; also recorded: NADPH-dependent manner”. For the same compound, the IC50 (Human P450 2A6) was greater than 50 µM and the “inhibition activity for P450 2A6” value (Human P450 2A6; at the dose of 50 μM) was “did not show any inhibition activity”.
`C#Cc1ccc2c(C)cc(=O)oc2c1` [7E4MC, 7-Ethynyl-4-methylcoumarin] was tested, and the Ki (Human P450 1A2) was 2.65 µM, the “difference in the IC50 values, more effective on P450 1A2 than P450 1A1” value (Human P450 1A2) was “around 5 fold” and the IC50 (rat P450 2B1) was greater than 50 µM. It also gave a Ki (Human P450 1A1) of 38.6 µM, a kinact (Human P450 1A1) of 0.0035 s⁻¹ and an IC50 (Human P450 2A6) greater than 50 µM.
Compound `C#Cc1cc2oc(=O)ccc2cc1OC` [7E6MOC, 7-Ethynyl-6-methoxycoumarin] has a Ki (Human P450 1A2) of 78.9 µM, an IC50 (rat P450 2B1) greater than 50 µM and a Ki (Human P450 1A1) of 104 µM. The kinact (Human P450 1A1) was 0.00567 s⁻¹ and the IC50 (Human P450 2A6) was greater than 50 µM.
With `C#Cc1ccc2ccc(=O)oc2c1` [7EC, 7-Ethynylcoumarin] the Ki (Human P450 1A2) was 5.83 µM, the IC50 (rat P450 2B1) was greater than 50 µM and the IC50 (Human P450 2A6) was greater than 50 µM.
`C#Cc1ccc2c(C)c(-c3ccccc3)c(=O)oc2c1` [7E4M3PC, 7-Ethynyl-4-methyl-3-phenylcoumarin] gave a Ki (Human P450 1A2) of 0.83 µM, an IC50 (rat P450 2B1) greater than 50 µM and a Ki (Human P450 1A1) of 5.16 µM. It also gave a kinact (Human P450 1A1) of 0.00517 s⁻¹ and an IC50 (Human P450 2A6) greater than 50 µM.
`C#Cc1ccc2c(-c3ccccc3)c(C)c(=O)oc2c1` [7E3M4PC, 7-Ethynyl-3-methyl-4-phenylcoumarin] was tested, and the “inhibition behavior toward P450 1A2” value (Human P450 1A2) was “does not show a time-dependent loss of enzymatic activity; also recorded: sole competitive inhibitor; also recorded: does not show time- and NADPH-dependent inhibition; also recorded: completely competitive”, the IC50 (rat P450 2B1) was 9.16 µM and the kinact (rat P450 2B1; read-out: limiting Kinact on P450 2B1) was 0.00483 s⁻¹. The “inhibition behavior toward P450 2B1” value (rat P450 2B1) was “sole mechanism-based inhibitor”, the Ki (Human P450 1A1) was 3.58 µM and the kinact (Human P450 1A1) was 0.00617 s⁻¹. For the same compound, the IC50 (Human P450 2A6) was greater than 50 µM.
